Several values for one entry are separate records, joined by “and”; a condition that tells them apart may be missing. Equal entries are not always repeated.
Assays:
[1] = tested on: ALK-driven refractory or relapsed neuroblastoma; assay: Functional imaging response: MIBG Curie score / FDG-PET avidity; type: in vivo, human; design: key to Symbol to indicate Soft tissue became MIBG non-avid: *: Symbol to indicate Soft tissue became MIBG non-avid; conditions: for complete resolution of MIBG avidity (CR) in bone and/or soft tissue: patients with BOR of SD/MR/PR
Text: Patients underwent disease staging at baseline, after courses 2 and 4 and then every four courses thereafter. The primary endpoint for response analysis is the BOR, defined as the best response observed before progression or start of another therapy. […] Response was graded according to the NANT response criteria version 2.0 (ref. [26]), modified from the International Neuroblastoma Response Criteria (INRC)[48]. NANT response criteria use three components for assessment of overall response: soft tissue response assessed by anatomical imaging and avidity on MIBG or FDG-PET; bone response assessed by uptake in bone by MIBG or bone involvement on FDG-PET; and bone marrow response assessed by morphology on bilateral aspirates and biopsies. Each response component (soft tissue, bone and bone marrow) are graded as CR, PR, SD and PD. Overall response grading is defined as: CR, if a response of CR in all components that are involved at baseline; PR, if a response of PR or better in all involved components; MR, if a response of PR or better but with at least one involved component as SD and no PD in all involved components; SD, if a response of SD in all involved components; and PD, if a response of PD in at least one involved component. The overall response definitions are identical to overall responses (CR, PR, SD and PD) as defined by the INRC. Response assessment is initially performed by sites and reviewed against source documents by NANT operations. Additional blinded central review of all radiological or pathological data was conducted for patients with overall PR or better and, in addition, radiologic pathological data of all involved sites for patients with MR to assign the final BOR on this study. Response by MIBG was determined using the Curie criteria. RR was determined as the proportion of patients with BOR of CR and PR in each cohort. Based on an international consensus by the National Cancer Institute Clinical Trials Planning Committee to refine tumor site eligibility criteria and evaluation of disease response for early-phase clinical trials in children with high-risk recurrent, refractory and progressive neuroblastoma, we also performed an ad hoc analysis to determine a modified RR that includes the proportion of patients with BOR of CR, PR and MR.

[2] = adults with NSCLC; cited from earlier work
[3] = tested on: neuroblastoma-derived xenografts harboring F1174L, F1245C or R1275Q ALK mutations; conditions: cited from earlier work

With `C[C@H]1Oc2cc(cnc2N)-c2c(nn(C)c2C#N)CN(C)C(=O)c2ccc(F)cc21` [Lorlatinib, (10R)-7-amino-12-fluoro-2,10,16-trimethyl-15-oxo-10,15,16,17-tetrahydro-2H-8,4-(metheno)pyrazolo[4,3-h][2,5,11]-benzoxadiazacyclotetradecine-3-carbonitrile] the “responders achieving MIBG complete responses” value ([1]; 13 of 27 responders, all cohorts) was 48%, the “MIBG Curie Score % change from baseline” value ([1]; Cohort A1, individual patient) was -87% and -94% and -100% and 600% and 50% and 40% and 33% and -10% and -18% and -70% and the “Symbol to indicate Soft tissue became MIBG non-avid” value ([1]; Cohort A1, individual patient) was “*”. For the same compound, the “MIBG Curie Score % change from baseline” value ([1]; Cohort A2, individual patient) was -4.76% and -25% and -44% and -56% and -67% and -95% and -100%, the “Symbol to indicate Soft tissue became MIBG non-avid” value ([1]; Cohort A2, individual patient) was “*” and the “MIBG Curie Score % change from baseline” value ([1]; Cohort B2, individual patient) was 100% and 56% and 1% and -33% and -73% and -75% and -100%. The “Symbol to indicate Soft tissue became MIBG non-avid” value ([1]; Cohort B2, individual patient) was “*”, the “Curie Score Percent Change” value ([1]; Patient ID 2) was -100 and the “Minimum Curie” value ([1]; Patient ID 2, Enrollment Curie 5) was 0. The “Curie Score Percent Change” value ([1]; Patient ID 3) was -94.44, the “Minimum Curie” value ([1]; Patient ID 3, Enrollment Curie 18) was 1 and the “Curie Score Percent Change” value ([1]; Patient ID 9) was -10. The “Minimum Curie” value ([1]; Patient ID 9, Enrollment Curie 10) was 9, the “Curie Score Percent Change” value ([1]; Patient ID 10) was 50 and the “Minimum Curie” value ([1]; Patient ID 10, Enrollment Curie 4) was 6. The “Curie Score Percent Change” value ([1]; Patient ID 11) was -100, the “Minimum Curie” value ([1]; Patient ID 11, Enrollment Curie 1) was 0 and the “Curie Score Percent Change” value ([1]; Patient ID 12) was 33.33. The “Minimum Curie” value ([1]; Patient ID 12, Enrollment Curie 6) was 8, the “Curie Score Percent Change” value ([1]; Patient ID 17) was -86.66 and the “Minimum Curie” value ([1]; Patient ID 17, Enrollment Curie 15) was 2. The “Curie Score Percent Change” value ([1]; Patient ID 21) was -100, the “Minimum Curie” value ([1]; Patient ID 21, Enrollment Curie 3) was 0 and the “Curie Score Percent Change” value ([1]; Patient ID 25) was -100. The “Minimum Curie” value ([1]; Patient ID 25, Enrollment Curie 2) was 0, the “Curie Score Percent Change” value ([1]; Patient ID 26) was -18.18 and the “Minimum Curie” value ([1]; Patient ID 26, Enrollment Curie 11) was 9. The “Curie Score Percent Change” value ([1]; Patient ID 30) was 40, the “Minimum Curie” value ([1]; Patient ID 30, Enrollment Curie 5) was 7 and the “Curie Score Percent Change” value ([1]; Patient ID 31) was -100. The “Minimum Curie” value ([1]; Patient ID 31, Enrollment Curie 3) was 0, the “Curie Score Percent Change” value ([1]; Patient ID 32) was 600 and the “Minimum Curie” value ([1]; Patient ID 32, Enrollment Curie 2) was 14. For the same compound, the “Curie Score Percent Change” value ([1]; Patient ID 38) was -100, the “Minimum Curie” value ([1]; Patient ID 38, Enrollment Curie 3) was 0 and the “Curie Score Percent Change” value ([1]; Patient ID 40) was -70. For the same compound, the “Minimum Curie” value ([1]; Patient ID 40, Enrollment Curie 10) was 3, the “complete resolution of MIBG avidity (CR) in bone and/or soft tissue” value (“complete resolution of MIBG avidity (CR)” for short) ([1]; A1, five of eight) was 63% and the “complete resolution of MIBG avidity (CR)” value ([1]; A2, three of ten) was 30%. For the same compound, the “complete resolution of MIBG avidity (CR)” value ([1]; B2, one of four) was 25%, the “complete resolution of metabolic activity in soft tissue lesions by MIBG/FDG-PET” value ([1]; ten of 22 patients with avid soft tissue lesions and BOR of SD/MR/PR) was 45% and the “adult RP2D” value [2] was 100 mg per day. The “anti-tumor doses lower than crizotinib” value ([3]; ALK-driven neuroblastoma pre-clinical models in vivo) was 10–30 fold and the “effect on xenograft tumors” value ([3]; crizotinib-resistant and sensitive xenografts) was “complete tumor regression”.

Source: PMC10202811 (Nature Medicine, 2023)
